The text below walks through data of paper PMC5701060, “Inhibition of the inflammatory response to stress by targeting interaction between PKR and its cellular activator PACT” (Scientific Reports, 2017).

For this test, the target named is T1, PKR/PACT (GST-PKR-Nter / His-PACT) (Homo sapiens, UniProt O75569+P19525).
T1 construct: gene EIF2AK2; PKR 1-265 (both DRBDs, no kinase domain) with N-terminal GST; full-length PACT with N-terminal His tag; E. coli
T1 sequence (P19525 1-265): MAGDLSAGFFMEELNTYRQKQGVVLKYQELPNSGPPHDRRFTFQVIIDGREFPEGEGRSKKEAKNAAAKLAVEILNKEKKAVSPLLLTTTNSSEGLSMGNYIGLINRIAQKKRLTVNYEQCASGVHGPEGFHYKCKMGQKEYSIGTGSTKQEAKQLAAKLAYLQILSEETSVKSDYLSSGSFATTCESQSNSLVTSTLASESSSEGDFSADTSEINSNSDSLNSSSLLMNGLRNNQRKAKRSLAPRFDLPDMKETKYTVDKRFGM
T1 sequence (O75569 whole entry, the tested form may be a part): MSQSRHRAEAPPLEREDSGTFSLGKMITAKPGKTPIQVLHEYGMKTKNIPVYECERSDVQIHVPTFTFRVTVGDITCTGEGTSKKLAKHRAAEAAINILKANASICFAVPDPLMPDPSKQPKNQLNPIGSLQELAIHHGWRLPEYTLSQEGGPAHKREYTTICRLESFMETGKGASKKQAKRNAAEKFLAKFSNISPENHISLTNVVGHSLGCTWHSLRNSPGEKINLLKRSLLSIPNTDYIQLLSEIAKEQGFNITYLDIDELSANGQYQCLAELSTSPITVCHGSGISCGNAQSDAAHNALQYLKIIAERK
The test can be described thus: HTRF protein-protein interaction assay. Format: binding.
For `O=c1cc(-c2ccc(O)c(O)c2)oc2cc(O)cc(O)c12` [luteolin], the IC50 was 50000 nM.

`O=c1c(O)c(-c2cc(O)c(O)c(O)c2)oc2cc(O)cc(O)c12` [myricetin]: the midpoint of inhibition, the IC50, lay at 600 nM.

`O=c1c(O)c(-c2ccc(O)c(O)c2)oc2cc(O)cc(O)c12` [quercetin] registered a 50% inhibitory concentration (IC50) of 2000 nM.
